# Measurements as given in patent publication US20200278355A1, “CONJUGATED PROTEINS AND USES THEREOF” (THE SCRIPPS RESEARCH INSTITUTE, priority 2017, published 2020).
# Biological target: T1, NR0B1 (Homo sapiens, UniProt P51843)
# T1 construct: H460 cells or H460 cells expressing luciferase in a 10 cm plate were incubated with indicated compounds; endogenous in cells; host or cells: H460 (NSCLC, KEAP1-mutant)
# T1 sequence (P51843 1-470): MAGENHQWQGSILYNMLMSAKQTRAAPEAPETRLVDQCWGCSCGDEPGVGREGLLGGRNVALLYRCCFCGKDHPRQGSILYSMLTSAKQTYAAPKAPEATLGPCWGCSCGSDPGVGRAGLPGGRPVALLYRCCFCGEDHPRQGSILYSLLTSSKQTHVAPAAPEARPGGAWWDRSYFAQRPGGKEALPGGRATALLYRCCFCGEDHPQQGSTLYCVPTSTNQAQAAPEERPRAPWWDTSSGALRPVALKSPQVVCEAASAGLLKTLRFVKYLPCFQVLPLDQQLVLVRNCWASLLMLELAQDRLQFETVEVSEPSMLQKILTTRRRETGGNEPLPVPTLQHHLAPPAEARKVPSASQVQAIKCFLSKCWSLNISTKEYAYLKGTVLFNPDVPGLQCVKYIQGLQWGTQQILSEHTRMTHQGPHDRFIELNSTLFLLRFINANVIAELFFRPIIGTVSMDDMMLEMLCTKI
# Test: isoTOP-ABPP of compound-treated H460 cells: NR0B1
# Type: cell-based
# Conditions: for receptor occupancy at 40 µM: NCI-H460, 40 μM for 3 h, read-out: target occupancy of C274 of NR0B1
# Protocol: For analysis of NR0B1 ligands or control compound reactivity, H460 cells or H460 cells expressing luciferase in a 10 cm plate were incubated with indicated compounds in serum/dye-free RPMI for 3 hours at 37° C. Cells were washed once ice-cold PBS and lysed in 1% Triton X-100 dissolved in PBS with protease inhibitors (Sigma) by sonication. Samples were clarified by centrifugation for 10 min at 16,000×g. Lysate was adjusted to 1.5 mg ml^−1 in 500 μL.
# Samples were labeled for 1 h at ambient temperature with 100 μM iodoacetamide alkyne (1, IA-alkyne, 5 μL of 10 mM stock in DMSO). Samples were conjugated by copper-catalyzed azide-alkyne cycloaddition (CuAAC) to isotopically labeled, TEV-cleavable tags (TEV-tags). Heavy CuAAC reaction mixtures was added to the DMSO-treated or shGFP control samples and light CuAAC reaction mixture was added to compound-treated or shNRF2 samples. The CuAAC reaction mixture consisted of TEV tags (light or heavy, 10 μL of 5 mM stocks in DMSO, final concentration=100 μM), 1 mM tris(2-carboxyethyl)phosphine hydrochloride (TCEP; fresh 50× stock in water, final concentration=1 mM), ligand (17× stock in DMSO:t-butanol 1:4, final concentration=100 μM) and 1 mM CuSO4 (50× stock in water, final concentration=1 mM). The samples were allowed to react for 1 h at which point the samples were centrifuged (16,000×g, 5 min, 4° C.). The resulting pellets were sonicated in ice-cold methanol (500 μL) and the resuspended light- and heavy-labeled samples were then combined pairwise and centrifuged (16,000×g, 5 min, 4° C.). The pellets were solubilized in PBS containing 1.2% SDS (1 mL) with sonication and heating (5 min, 95° C.) and any insoluble material was removed by an additional centrifugation step at ambient temperature (14,000×g, 1 min).
# For each sample, 100 μL of streptavidin-agarose beads slurry (Fisher) was washed in 10 mL PBS and then resuspended in 6 mL PBS (final concentration 0.2% SDS in PBS). The SDS-solubilized proteins were added to the suspension of streptavidin-agarose beads and the bead mixture was rotated for 3 h at ambient temperature. After incubation, the beads were pelleted by centrifugation (1,400×g, 3 min) and were washed (2×10 mL PBS and 2×10 mL water).
# The beads were transferred to eppendorftubes with 1 mL PBS, centrifuged (1,400×g, 3 min), and resuspended in PBS containing 6 M urea (500 μL). To this was added 10 mM DTT (25 μL of a 200 mM stock in water) and the beads were incubated at 65° C. for 15 mins. 20 mM iodoacetamide (25 μL of a 400 mM stock in water) was then added and allowed to react at 37° C. for 30 mins with shaking. The bead mixture was diluted with 900 μL PBS, pelleted by centrifugation (1,400×g, 3 min), and resuspended in PBS containing 2 M urea (200 μL). To this was added 1 mM CaCl2 (2 μL of a 200 mM stock in water) and trypsin (2 μg, Promega, sequencing grade) and the digestion was allowed to proceed overnight at 37° C. with shaking. The beads were separated from the digest with Micro Bio-Spin columns (Bio-Rad) by centrifugation (1,000×g, 1 min), washed (2×1 mL PBS and 2×1 mL water) and then transferred to fresh eppendorf tubes with 1 mL water. The washed beads were washed once further in 140 μL TEV buffer (50 mM Tris, pH 8, 0.5 mM EDTA, 1 mM DTT) and then resuspended in 140 μL TEV buffer. 5 μL TEV protease (80 μM) was added and the reactions were rotated overnight at 29° C. The TEV digest was separated from the beads with Micro Bio-Spin columns by centrifugation (1,400×g, 3 min) and the beads were washed once with water (100 μL). The samples were then acidified to a final concentration of 5% (v/v) formic acid and stored at −80° C. prior to analysis.
# Samples processed for multidimensional liquid chromatography tandem mass spectrometry (MudPIT) were pressure loaded onto a 250 μm (inner diameter) fused silica capillary columns packed with C18 resin (Aqua 5 μm, Phenomenex). […]
smiles,measurement,setting,value
"O=C(CCl)N(Cc1cccc(Cl)c1F)c1ccc(Cl)nc1 [BPK-26, 2-chloro-N-(3-chloro-2-fluorobenzyl)-N-(6-chloropyridin-3-yl)acetamide]",cysteines in NR0B1 engaged among several quantified cysteines,"40 μM, 3 h",the only cysteine in NR0B1 engaged
same,receptor occupancy at 40 µM,NSCLC cells,~70%
"O=C(c1ccc(N2CCOCC2)cc1)N1CCC(CN(C(=O)CCl)c2cncnc2)CC1 [BPK-9, 2-chloro-N-((1-(4-morpholinobenzoyl)piperidin-4-yl)methyl)-N-(pyrimidin-5-yl)acetamide]",engagement of C274 of NR0B1,"NSCLC cells, 40 μM, 3 h",did not engage C274
"O=C(c1ccc(N2CCOCC2)cc1)N1CCCC(N(Cc2ccccc2)C(=O)CCl)CC1 (centres unmarked) [BPK-29, N-benzyl-2-chloro-N-(1-(4-morpholinobenzoyl)azepan-4-yl)acetamide]",cysteines in NR0B1 engaged among several quantified cysteines,"40 μM, 3 h",the only cysteine in NR0B1 engaged
same,receptor occupancy at 40 µM,NSCLC cells,~70%
same,BPK-29-competed isoTOP-ABPP analysis,"NR0B1 C274, 40 μM",Yes (Competed defined as showing R value ≥ 3.0 at 40 μM of test compound)
same,relative potency of C274 engagement,NSCLC cells,superior potency compared to BPK-26
same,engagement of C274,"NSCLC cells, 5 μM, 3 h",> 50%
